How the values were obtained:
Epstein-Barr virus = conditions: infections caused by Epstein-Barr virus; cited from earlier work
varicella zoster virus = conditions: infections caused by varicella zoster virus; cited from earlier work
[1] = system: herpes simplex virus type 1; conditions: infections caused by herpes simplex virus type 1; cited from earlier work
[2] = human body, cited from earlier work
replication of viruses = conditions: BVU as such; cited from earlier work
[3] = Toxicity / deaths of mice in Example 1; assay type: in vivo, male BDF1 mice
[4] = cited from earlier work
adenocarcinoma 755 = assay: Antitumor activity against subcutaneous adenocarcinoma 755 in BDF1 mice, oral FU or FU + BVDU (Example 1); conditions: for T/C (percent tumor weight with regard to control) / tumor weight, Mean ± SD: p.o. daily, 5 days, day 12
Protocol: Groups of 6 male BDF1 -mice having a body weight of 21 to 23 g, were subcutaneously inoculated on day 0 with tumor cells of the type adenocarcinoma 755 at a dose of 5=10^5 cells per mouse. Thereupon, the compound FU (or a combination of FU and BVDU) was perorally administered in a predetermined daily dose during 5 consecutive days, starting 24 hours after the inoculation with tumor cells. On day 12, the tumor weight was determined and compared with the tumor weight in a non-treated control group.

[5] = FU 30 mg/kg, p.o. daily, 5 days

Which antiviral activity (Epstein-Barr virus) does the source give for `O=c1[nH]c(=O)n([C@H]2C[C@H](O)[C@@H](CO)O2)cc1/C=C/Br` [BVDU, (E)-5-(2-bromovinyl)-2'-deoxyuridine] here?
Its antiviral activity is “active”.

What about the antiviral activity (varicella zoster virus) of the same molecule?
The antiviral activity was “active”.

And the antiviral activity [1]?
The antiviral activity was “active”.

And the “conversion to BVU” value [2]?
The value was “rapidly converted”.

For `O=c1[nH]cc(/C=C/Br)c(=O)[nH]1` [BVU, 5-(2-bromovinyl)uracil], which “activity against replication of viruses” value (replication of viruses) is on record?
Its value is “inactive”.

And the “presence in the blood stream” value ([2]; after conversion from BVDU)?
The value was “remains present in the blood stream for a relatively long period”.

With `O=c1[nH]c(=O)n(C2CCCO2)cc1F` (stereo not shown) [FT, N1-(2'-tetrahydrofuryl)-5-fluorouracil] as the molecule, how does the “conversion to FU” value [2] read?
The value was “converted slowly to FU”.

Which “died (animals of group)” value [3, 5] does the source give for `O=c1[nH]cc(F)c(=O)[nH]1` [FU, 5-fluorouracil] here?
The value was 3/6.

And the “toxicity (in words)” value [3, 5]?
Its value is “Toxic”.

What about the LD50 ([3]; mouse, in vivo, po, FU used alone, from the Table (doses in mg/kg), read-out: LD50 (50% lethal dose)) of the same molecule?
Its LD50 is 30 mg/kg.

What about the “degradation in the liver” value [4] of the same molecule?
Its value is “degraded rather rapidly”.

What about the “T/C (percent tumor weight with regard to control)” value (adenocarcinoma 755; FU 5 mg/kg) of the same molecule?
The value was 122%.

What about the “tumor weight, Mean ± SD” value (adenocarcinoma 755; FU 5 mg/kg) of the same molecule?
Its value is 2523 ± 389 mg.

And the “T/C (percent tumor weight with regard to control)” value (adenocarcinoma 755; FU 10 mg/kg)?
Its value is 85%.

And the “tumor weight, Mean ± SD” value (adenocarcinoma 755; FU 10 mg/kg)?
The value was 1759 ± 726 mg.

What about the “T/C (percent tumor weight with regard to control)” value (adenocarcinoma 755; FU 20 mg/kg) of the same molecule?
The value was 32%.

And the “tumor weight, Mean ± SD” value (adenocarcinoma 755; FU 20 mg/kg)?
Its value is 675 ± 355 mg.

And the “therapeutic index (ratio of LD50 to ED50)” value (adenocarcinoma 755; FU used alone)?
Its value is 2.

And the ED50 (adenocarcinoma 755; Mus musculus, po, 288 h, read-out: ED50 (dose causing a 50% reduction of T/C))?
Its ED50 is 15 mg/kg.

Source: patent US4988678A, “Combinations of FU and BVU as anti-adenocarcinoma agents” (priority 1987, dated 1991)
